From patent US9180163B2, “Parstatin peptides” (priority 2009, dated 2015)
Ends that are not written are not given here.

Experiments:
[1] = test system: myocardial ischemia-reperfusion injury in Sprague Dawley rats; conditions: for infarct size, inhibitor alone: without parstatin (1-26), L-NMA 15 μg/Kg, ODQ 1 mg/kg, glibenclamide 3 mg/kg, atractyloside 3 mg/Kg
Description: Parstatin (1-41) was used in an in vivo rat model of cardiac ischemia and reperfusion, and in an in vitro isolated rat heart model of ischemia-reperfusion injury.
For in vivo infarct size studies, rats were anesthetized with pentobarbital sodium (50 mg/Kg) and heparin (1000 IU/Kg) and underwent 30 min of regional ischemia followed by 120 min of reperfusion. Parstatin (1-41) was administered-intravenously over 1 min starting 15 min prior to ischemia, or 15 min after the onset of ischemia, or 10 seconds after the onset of reperfusion in separate series of experiments (n=6/group).
To induce ischemia, ligature was positioned around the left main coronary artery and threaded through a plastic snare to permit reversible occlusion of the coronary artery. Coronary occlusion was induced by clamping the snare onto the heart and reperfusion was achieved by releasing the snare. At the end of reperfusion, the coronary artery was re-occluded and the risk zone was delineated by perfusion of 0.5% Evans' blue into the aortic cannula. Hearts were sectioned and incubated in 1% triphenyltetrazolium chloride in phosphate buffer for 15 min to define white necrotic tissue when fixed in 10% formalin for 24 h. Area at risk (AAR) and infarct-to-risk rations were determined by computerized planimetry using J-Image v.i.6 software (NIH, Bethesda, Mass.).
For in vivo infarct size/ischemia-reperfusion studies, rats were anesthetized with pentobarbital sodium (50 mg/Kg) and heparin (1000 IU/Kg) and underwent 30 min of regional ischemia followed by 120 min of reperfusion. Human hydrophobic parstatin (1-26) fragment was administered intravenously over 1 min at one of three time points: 1) starting 15 min prior to ischemia, 2) 15 min after the onset of ischemia, or 3) 10 seconds after the onset of reperfusion in a separate series of experiments (n=6/group).
Ischemia was induced by placement of a ligature around the left main coronary artery which was threaded through a plastic snare to permit reversible occlusion of the coronary artery. Coronary occlusion was induced by clamping the snare onto the heart and reperfusion was achieved by releasing the snare. At the end of reperfusion, the coronary artery was re-occluded and the risk zone was delineated by perfusion 0.5% Evans' blue into the aortic cannula.
Hearts were sectioned and incubated in 1% triphenyltetrazolium chloride in phosphate buffer for 15 min to define white necrotic tissue when fixed in 10% formalin for 24 h. Area at risk (AAR) and infarct-to-risk rations were determined by computerized planimetry using J-Image v.i.6 software (NIH, Bethesda, Mass.). The principal endpoint of these studies was infarct size expressed as a percentage of the area at risk.

isolated rat hearts = assay: isolated rat heart ischemia-reperfusion; conditions: for infarct size / LVDP, inhibitor alone: without parstatin (1-41), L-NMA 100 μM, ODQ 10 μM
Description: For in vitro studies, excised hearts were retrogradely perfused through the aorta with a modified Krebs buffer. Coronary flow rate was determined by timed collection of the coronary effluent. A saline-filled latex balloon connected to a pressure transducer was inserted into the left […] (LV), and baseline end-diastolic pressure was set at 5-10 mmHg. Heart rate, LV end-diastolic pressure and LV developed pressures (LVDP) were recorded continuously. The measurements for post-ischemic recovery of LVDP used for comparison were taken at 180 min of reperfusion. After stabilization for 15-20 min, the hearts (n=6/group) were subjected to 30 min of regional ischemia, followed by 180 min of reperfusion. Different concentrations of […] (1-41) were perfused 15 min prior to coronary occlusion until occlusion. Control hearts produced an infarct size of 51±3% of the area at risk (FIG. 19A). […] A picture representation of infarct in control versus […] Similarly, […] (1-41) increased recovery of LVDP in a concentration-dependent manner (FIG. 19B). Again, the optimal concentration was 1 μM which produced a 23% recovery of LVDP (FIG. 19B).

HUVEC cells = assay: [3H]-thymidine incorporation (DNA synthesis); format: cell-based, human; conditions: 10 μM, bFGF 5 ng/ml
Description: The ability of parstatin (1-41) to inhibit DNA synthesis of endothelial cells was assessed in thymidine incorporation assays. HUVEC cells were grown until 60-80% confluent in 24-well plates. Cells were treated with indicated peptides in serum-free medium containing either 0.5% BSA, or VEGF, or bFGF, or medium containing 5% FBS, or epidermal growth factor (EGF), or heparin-binging EGF (HB-EGF) for 18 hours. All cells were pulsed with 0.5 μCi/ml [3H]-thymidine (ICN Biomedicals Inc., Irvine Calif.) for additional 6 h. Radioactivity incorporated into DNA was determined in liquid scintillation counter.

[2] = test system: Erk1/2 (p42/44 MAPK) in HUVEC cells; assay: Erk1/2 phosphorylation immunoblot (MAP kinase pathway); format: cell-based, human; conditions: pretreatment 1 h, 10 μM; stimulated by FBS, bFGF or VEGF
Description: The MAPK (Erk1/2, p42/44) cascade mediates mitogenesis. […] HUVEC cells were cultured in 35 mm tissue culture dishes. After reaching 80% confluency, cells were growth factor-starved and subsequently stimulated for 10 min with vehicle or indicated agents. In combination experiments, cells were pretreated with parstatin or other peptides for 10 to 60 min.
Attached cells were lysed with Laenmli sample buffer, resolved in 10% SDS-PAGE, and transferred to nitrocellulose membranes. Membranes were incubated with primary antibodies against phospho p42/44 mitogen-activated protein kinases (p-Erk1/2, New England Biolabs, UK) and p42/44 Erk1/2 (t-Erk1/2, New England Biolabs, UK). Membranes were then probed with secondary antibodies horseradish peroxidase-conjugated, and proteins were visualized by chemiluminescent detection.

[3] = test system: choroidal neovascularization in C57BL/6J mice; format: in vivo; conditions: mouse, in vivo
Description: Parstatin (1-41), hydrophobic parstatin (1-26) fragment and hydrophilic parstatin (24-41) fragment were used in an in vivo mouse model of choroidal neovascularization. In particular, laser photocoagulation-induced rupture of Bruch's membrane was used to generate choroidal neovascularization as a preclinical disease model for age-related macular degeneration. Pathogen-free C57BL/6J (4-5 week-old) mice were treated in accordance with the Association for Research in Vision and Ophthalmology Statement for the Use of Animals in Ophthalmic and Vision Research and the guidelines of the Animal Care and Use Committee at local University Medical School.
C57BL/6J (4-5 week-old) mice were anesthetized with ketamine hydrochloride (100 mg/kg body weight) and xylazine-(4 mg/Kg body weight) and the pupils were dilated with 1% tropicamide. Laser photocoagulation (75 μm spot size, 0.1 sec duration, 120 mW) was performed in the 9, 12, and 3 o'clock positions of the posterior pole of the retina with the slit lamp delivery system of an Oculight GL diode laser (Index, Mountain View, Calif.) and a handheld cover slip as a contact lens to view the retina. Production of a bubble at the time of laser, which indicates rupture of Bruch's membrane, is an important factor in obtaining CNV. Therefore, only burns in which a bubble was produced were included in the study. Two weeks after rupture of Bruch's membrane, anesthetized mice were perfused with 50 mg/ml fluorescein-labelled-dextran (2×10^6 average molecular weight, Sigma-Aldrich, St. Louis, Mo.). The eyes were then dissected and fixed in 10% Formalin for 3 hours and choroidal flat mounts were examined by fluorescence microscopy. Image-Pro Plus software (Media Cybernetics, Silver Spring, Md.) was used to measure the total area of CNV at each rupture site by personnel blinded as to study treatments and groups.
Intraocular injections of parstatin peptides were performed with a Harvard pump microinjection apparatus and pulled glass micropipets. […] Choroidal neovascularization was assessed 14 days after laser treatment.

[4] = test system: retinal neovascularization in C57BL/6 mice; format: in vivo; conditions: mouse, in vivo
Text: Parstatin (1-41), hydrophobic parstatin (1-26) fragment and hydrophilic parstatin (24-41) fragment were used in an in vivo mouse model of retinal neovascularization. In particular, oxygen-induced retinopathy was used to generate retinal neovascularization as a preclinical disease model for retinopathy of prematurity and other retinal neovascular diseases such as diabetic retinopathy. In this model, exposing newborn mice to hyperoxia prompts regression or delay of retinal vascular development, followed by abnormal angiogenesis after their return to normal oxygen levels. Mainly, this model mirrors the events that occur during retinopathy of prematurity, when infants are removed from oxygen-rich incubators, a condition involving pathological neovascularization that can affect premature infants and result in permanent visual loss. In recent years, the use of this model has been extended to the general study of ischemic vasculopathies, such us diabetic retinopathy, and related antiangiogenic interventions, and it is now used extensively in both basic and applied research environments.
Pathogen-free C57BL/6 mice were treated in accordance with the Association for Research in Vision and Ophthalmology Statement for the Use of Animals in Ophthalmic and Vision Research and the guidelines of the Animal Care and Use Committee at local University Medical School. Litters of 7-day old (P7) mice were exposed to an atmosphere of 75% oxygen in an airtight incubator for 5 days (P12), after which they were returned to room air for 5 days (P17). For quantification of oxygen-induced retinal neovascularization, mice on P17 were given an intraocular injection of 1 μl of rat anti-mouse platelet endothelial cell adhesion molecule-1 (PECAM-1) antibody (Pharmingen, San Jose, Calif.) under a dissecting microscope with Harvard pump microinjection apparatus. Mice were euthanized 12 hours after injection and eyes were fixed in PBS-buffered formalin for 5 hours. […] Retinal flat mounts were prepared and assessed with fluorescence microscope using imaging software. […]

Compound: C=C1[C@@H]2CC[C@H]3[C@]4(C)C[C@H](O[C@@H]5O[C@H](CO)[C@@H](OS(=O)(=O)O)[C@H](OS(=O)(=O)O)[C@H]5OC(=O)CC(C)C)C[C@@H](C(=O)O)[C@H]4CC[C@]3(C2)[C@H]1O [Atractyloside, atractyloside, reference compound]
- infarct size, inhibitor alone [1]: no effect

Compound: COc1ccc(Cl)cc1C(=O)NCCc1ccc(S(=O)(=O)NC(=O)NC2CCCCC2)cc1 [Glibenclamide, glibenclamide, reference compound]
- infarct size, inhibitor alone [1]: no effect

Compound: COC(=O)[C@@H](N)CCCNC(=N)N[N+](=O)[O-] [L-NMA, Nω-nitro-L-arginine methyl ester, reference compound]
- infarct size / LVDP, inhibitor alone (isolated rat hearts): no effect
- infarct size, inhibitor alone [1]: without effect

Compound: O=c1onc2cnc3ccccc3n12 [ODQ, 1H-[1,2, 4]oxadiazolo-[4,3-a]quinoxalin-1-one, reference compound]
- infarct size / LVDP, inhibitor alone (isolated rat hearts): no effect
- infarct size, inhibitor alone [1]: no effect

Compound: MGPRRLLLVAACFSLCGPLL-SARALTRSAPTPRDRANKETR (MGPRRLLLVAACFSLCGPLLSARALTRSAPTPRDRANKETR; Scrambled synthetic peptide) [modulated parstatin, human parstatin with amino acids 24 to 41 scrambled]
- bFGF-induced DNA synthesis (HUVEC cells): inhibit
- activation of Erk1/2 [2]: inhibit

Compound: MGPRRLLLVAACFSLCGPLLSARTRARRPESKATNATLDPR (cysteines drawn unpaired) [parstatin (1-41)]
- tolerability (slit lamp: irritation, inflammation, ocular toxicity; systemic toxicity) [3]: well tolerated
- tolerability in newborn mice [4]: not well tolerated
- inotropic or chronotropic effects before ischemia (isolated rat hearts; 1 μM): did not have inotropic or chronotropic effects
- baseline hemodynamics (heart rate, blood pressures) between groups ([1]; rat, in vivo): no significant differences
